Key:
Assay type in all cases: in vivo, Sprague-Dawley rats
[1] = tested on: RIPK3; experiment: Rodent ACLF model (BDL+LPS rats): plasma RIPK3 by ELISA; details: BDL+NEC-1+LPS vs BDL+Vehicle+LPS
Method: (§1) The animal model of ACLF utilised in this study was developed using a well-characterized rodent model of advanced fibrosis induced by bile duct ligation (BDL) with ACLF induced in this model by infusion of LPS. Bile duct ligation, housing, and care of the animals were performed as previously described. Four groups of adult male Sprague-Dawley rats were studied (n=4-8 in each group). The animals were studied 4 weeks after either sham-operation or BDL. The animals in each group were terminated 3-h after administration of LPS (Klebsiella pneumoniae) (0.3 mg/kg/hr, intravenously) or saline under terminal anaesthesia.
(§2) Necrostatin 1 (Nec-1, Calbiochem, Sigma Aldrich, UK) was prepared as follows. Nec-1 was redissolved in N-2 methyl-pyrrolidone (NMP) to make a 200 mg/ml stock solution which was then further diluted to an intermediate concentration of 40 mg/ml in NMP. […]
Blood was withdrawn from the carotid line and immediately placed in heparin or EDTA-containing tubes (until full exsanguination), centrifuged (3,500 rpm for 10 min at 4° C.) and the plasma was stored at −80° C. for later use in biochemistry and RIPK3 quantification [Rat RIPK3 (Receptor-interacting serine/threonineprotein kinase) ELISA kit, Cat. No. ER0446, Wuhan Fine Biological Technology Co., Ltd., China]. […]

[2] = Rodent ACLF model (BDL+LPS rats): plasma biochemistry, histone 3 and brain water
Method: as §1
Necrostatin 1 (Nec-1, Calbiochem, Sigma Aldrich, UK) was prepared as follows. Nec-1 was redissolved in N-2 methyl-pyrrolidone (NMP) to make a 200 mg/ml stock solution which was then further diluted to an intermediate concentration of 40 mg/ml in NMP. The 40 mg/ml solution was finally diluted to a working concentration of 1 mg/ml in a solution of 30% (2-hydroxypropyl) β-cyclodextrin (Sigma, Cat No H107)/0.5% Citric acid.
(§3) 4. BDL animals administered LPS and Nec-1; This group of BDL rats received an i.p. injection of 3.3 mg/kg Nec-1 followed, by an i.p injection of LPS, 3 hr later.
Animals were sacrificed 3 hours after LPS.
Blood was withdrawn from the carotid line and immediately placed in heparin or EDTA-containing tubes (until full exsanguination), centrifuged (3,500 rpm for 10 min at 4° C.) and the plasma was stored at −80° C. for later use in biochemistry and RIPK3 quantification [Rat RIPK3 (Receptor-interacting serine/threonineprotein kinase) ELISA kit, Cat. No. ER0446, Wuhan Fine Biological Technology Co., Ltd., China]. Organs were harvested and either fixed in formalin for histological assessment or snap frozen.

[3] = target: T1, RIPK1 (Rattus norvegicus, UniProt D3ZYL0); experiment: Rodent ACLF model (BDL+LPS rats): RIPK1 immunostaining of liver tissue; details: 3.3 mg/kg Nec-1 i.p. 3 hr before LPS, vs BDL+Vehicle+LPS, p=0.009
T1 construct: Representative images of liver tissue of sham, BDL, BDL+LPS and BDL+NEC-1+LPS stained for RIPK1; from tissue; host or cells: rat liver (BDL+LPS ACLF model)
T1 sequence (D3ZYL0 1-658): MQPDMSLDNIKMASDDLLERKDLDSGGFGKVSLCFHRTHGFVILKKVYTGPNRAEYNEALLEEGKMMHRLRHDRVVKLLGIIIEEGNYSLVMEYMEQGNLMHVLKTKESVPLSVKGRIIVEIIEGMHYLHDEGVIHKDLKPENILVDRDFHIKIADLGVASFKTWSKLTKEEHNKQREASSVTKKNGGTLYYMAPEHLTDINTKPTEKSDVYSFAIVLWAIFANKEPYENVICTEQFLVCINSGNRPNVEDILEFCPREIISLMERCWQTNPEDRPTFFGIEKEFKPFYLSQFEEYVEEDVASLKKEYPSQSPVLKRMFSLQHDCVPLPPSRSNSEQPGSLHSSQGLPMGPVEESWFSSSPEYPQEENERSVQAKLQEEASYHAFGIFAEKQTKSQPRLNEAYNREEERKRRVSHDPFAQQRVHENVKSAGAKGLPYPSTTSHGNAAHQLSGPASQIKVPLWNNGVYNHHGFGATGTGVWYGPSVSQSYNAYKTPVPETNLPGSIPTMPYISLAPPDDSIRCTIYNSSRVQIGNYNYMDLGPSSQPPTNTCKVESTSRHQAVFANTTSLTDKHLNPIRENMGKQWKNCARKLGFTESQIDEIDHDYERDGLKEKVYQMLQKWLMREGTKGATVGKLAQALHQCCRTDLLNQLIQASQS
Method: as §1, §2
(§4) Terminal deoxynucleotidyl transferase biotin-dUTP nick end labeling (TUNEL) staining of deparaffinised and proteinase K-treated liver and kidney sections was performed using the In-Situ Cell Death Detection kit, POD (Roche, UK) as per manufacturer's protocol. […] Quantitative analysis of immunohistochemistry positive area was assessed by measuring optical density using FIJI Image J software.

[4] = tested on: Caspase 3/7; experiment: Liver Caspase 3/7 activity (Caspase-Glo) in rodent ACLF model; details: BDL+NEC-1+LPS group; IQR 1640-3890; p=0.626 compared to BDL
Method: as §1, §3
(§5) Liver Caspase 3/7 and 8 activities were measured using Caspase-Glo assay kits (Promega). Briefly, cytosolic extracts from liver tissue were obtained by homogenisation in hypotonic extraction buffer [10 mM HEPES, 0.5% Triton X-100, 2 mM DTT, protease inhibitor cocktail (Sigma)] using a TissueLyser LT sytem (Qiagen, UK). […] After quantification using BCA™ Protein Assay Kit (Pierce, UK), protein concentrations of supernatant were adjusted to 1 mg/ml with extraction buffer and stored at −80° C. […] Luminescence was measured using a plate-reading luminometer (FLUOstar Omega, BMG Labtech, UK).

[5] = tested on: liver and kidney sections; experiment: Rodent ACLF model (BDL+LPS rats): TUNEL staining of liver and kidney sections (cell death)
Method: as §1, §2, §4

[6] = tested on: Caspase 8; experiment: Liver Caspase 8 activity (Caspase-Glo) in rodent ACLF model; details: BDL+NEC-1+LPS group; IQR 313.5-414.3; p=0.020 compared to BDL
Method: as §1, §3, §5

CN1C(=O)C(Cc2c[nH]c3ccccc23)NC1=S (stereo not drawn) [NEC-1, Necrostatin 1]
plasma RIPK3 levels [1]: reduced markedly
plasma urea levels ([2]; BDL+NEC-1+LPS vs BDL+Vehicle+LPS, p=0.012): significant reduction
plasma albumin levels ([2]; BDL+NEC-1+LPS vs BDL+Vehicle+LPS, p=0.017): significantly higher
plasma creatinine ([2]; BDL+NEC-1+LPS vs BDL+Vehicle+LPS, p=0.020): significant reduction
plasma AST ([2]; BDL+NEC-1+LPS vs BDL+Vehicle+LPS, p=0.037): significantly lower
brain water content ([2]; BDL+NEC-1+LPS vs BDL+Vehicle+LPS, p=0.100): reduction in brain water content, although not statistically significant
circulating levels of histone 3 ([2]; NEC-1 treated group vs BDL+Vehicle+LPS, p=0.048): significant reduction in circulating levels of histone 3
expression of RIPK1 in liver (immunostaining optical density) [3]: significantly decreased
Caspase 3/7 activity in liver homogenates, median [4]: 2857 RLU
total cell death in the livers (TUNEL staining) ([5]; BDL+NEC-1+LPS vs BDL+Vehicle+LPS, p=0.001): significant reduction in total cell death
cell death in kidneys (TUNEL staining) ([5]; BDL+NEC-1+LPS vs BDL+vehicle+LPS, p=0.002): significant reduction in cell death
Caspase 8 activity in liver homogenates, median [6]: 326.5 RLU

Source: patent US11714087B2, “Treatment of necroptosis” (priority 2018, dated 2023)
